According to PubChem BioAssay (NCI):
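Here, GI50 denotes the concentration required for 50% inhibition of growth. TGI: concentration producing complete growth inhibition.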

Assays:
Experiment in all cases: NCI-60 cell line screen, 384-well format
[1] = system: BT-549 breast
[2] = system: MALME-3M melanoma
[3] = system: HOP-92 NSCLC
[4] = system: SK-MEL-2 melanoma
[5] = system: NCI-H23 lung
[6] = system: HT29 colon
[7] = system: SK-OV-3 ovarian
[8] = system: HCT-15 colon
[9] = system: ACHN renal
[10] = system: UO-31 renal
[11] = system: A549 NSCLC
[12] = system: SK-MEL-28 melanoma
[13] = system: NCI-H226 lung
[14] = system: U251 glioblastoma
[15] = system: MDA-MB-231 breast
[16] = system: SK-MEL-5 melanoma
[17] = system: OVCAR-8 ovarian
[18] = system: EKVX NSCLC
[19] = system: COLO 205 colon
[20] = system: HCT-116 colon
[21] = system: SF-539 CNS
[22] = system: CAKI-1 renal
[23] = system: TK-10 renal
[24] = system: UACC-257 melanoma
[25] = system: PC-3 prostate
[26] = system: HOP-62 NSCLC
[27] = system: SF-268 CNS
[28] = system: RXF 393 renal
[29] = system: HL-60(TB) leukemia
[30] = system: IGROV1 ovarian
[31] = system: OVCAR-4 ovarian
[32] = system: CCRF-CEM leukemia
[33] = system: NCI-H460 NSCLC
[34] = system: OVCAR-3 ovarian
[35] = system: NCI-H322M lung
[36] = system: A498 renal
[37] = system: MDA-MB-435 melanoma
[38] = system: HCC-2998 colon
[39] = system: MDA-MB-468 breast
[40] = system: SF-295 CNS
[41] = system: MCF7 breast
[42] = system: LOX IMVI melanoma
[43] = system: SNB-19 CNS
[44] = system: NCI/ADR-RES ovarian
[45] = system: K-562 leukemia
[46] = system: UACC-62 melanoma
[47] = system: M14 melanoma
[48] = system: SN12C renal
[49] = system: SW-620 colon
[50] = system: NCI-H522 lung
[51] = system: 786-0 renal
[52] = system: MOLT-4 leukemia
[53] = system: SR leukemia
[54] = system: KM12 colon
[55] = system: SNB-75 CNS
[56] = system: RPMI-8226 leukemia
[57] = system: OVCAR-5 ovarian
[58] = system: HS 578T breast

Q: For `C=CC(=O)Nc1cccc(C)c1Nc1ncc2cc(-c3c(Cl)c(OC)cc(OC)c3Cl)ccc2n1`, which GI50 [1] is on record?
A: 843 nM

Q: And the TGI [1]?
A: 2440 nM

Q: And the GI50 [2]?
A: 2530 nM

Q: What about the TGI [2] of the same compound?
A: 9940 nM

Q: And the GI50 [3]?
A: 2250 nM

Q: What about the TGI [3] of the same compound?
A: 6440 nM

Q: What about the GI50 [4] of the same compound?
A: 894 nM

Q: And the TGI [4]?
A: 2200 nM

Q: What about the GI50 [5] of the same compound?
A: 1840 nM

Q: What about the TGI [5] of the same compound?
A: 5120 nM

Q: And the GI50 [6]?
A: 2440 nM

Q: And the TGI [6]?
A: 9750 nM

Q: What about the GI50 [7] of the same compound?
A: 1690 nM

Q: What about the TGI [7] of the same compound?
A: 17000 nM

Q: And the GI50 [8]?
A: 1940 nM

Q: And the TGI [8]?
A: 4930 nM

Q: What about the GI50 [9] of the same compound?
A: 2930 nM

Q: And the TGI [9]?
A: 23700 nM

Q: What about the GI50 [10] of the same compound?
A: 2230 nM

Q: And the TGI [10]?
A: 6740 nM

Q: What about the GI50 [11] of the same compound?
A: 2120 nM

Q: And the TGI [11]?
A: 7940 nM

Q: And the GI50 [12]?
A: 2590 nM

Q: What about the TGI [12] of the same compound?
A: 8300 nM

Q: And the GI50 [13]?
A: 1110 nM

Q: And the TGI [13]?
A: 6080 nM

Q: What about the GI50 [14] of the same compound?
A: 1520 nM

Q: What about the TGI [14] of the same compound?
A: 3740 nM

Q: And the GI50 [15]?
A: 1890 nM

Q: What about the TGI [15] of the same compound?
A: 5640 nM

Q: What about the GI50 [16] of the same compound?
A: 1460 nM

Q: What about the TGI [16] of the same compound?
A: 3380 nM

Q: What about the GI50 [17] of the same compound?
A: 1480 nM

Q: What about the TGI [17] of the same compound?
A: 3000 nM

Q: What about the GI50 [18] of the same compound?
A: 1840 nM

Q: And the TGI [18]?
A: 4550 nM

Q: What about the GI50 [19] of the same compound?
A: 2010 nM

Q: What about the TGI [19] of the same compound?
A: 12200 nM

Q: And the GI50 [20]?
A: 1730 nM

Q: And the TGI [20]?
A: 3890 nM

Q: And the GI50 [21]?
A: 615 nM

Q: And the TGI [21]?
A: 1930 nM

Q: What about the GI50 [22] of the same compound?
A: 2060 nM

Q: And the TGI [22]?
A: 13600 nM

Q: What about the GI50 [23] of the same compound?
A: 1980 nM

Q: What about the TGI [23] of the same compound?
A: 5920 nM

Q: And the GI50 [24]?
A: 1180 nM

Q: And the TGI [24]?
A: 3350 nM

Q: What about the GI50 [25] of the same compound?
A: 1010 nM

Q: What about the TGI [25] of the same compound?
A: 2600 nM

Q: And the GI50 [26]?
A: 775 nM

Q: And the TGI [26]?
A: 2340 nM

Q: What about the GI50 [27] of the same compound?
A: 1550 nM

Q: What about the TGI [27] of the same compound?
A: 3810 nM

Q: And the GI50 [28]?
A: 573 nM

Q: And the TGI [28]?
A: 1970 nM

Q: And the GI50 [29]?
A: 1100 nM

Q: What about the TGI [29] of the same compound?
A: 2380 nM

Q: What about the GI50 [30] of the same compound?
A: 2760 nM

Q: What about the TGI [30] of the same compound?
A: 7890 nM

Q: And the GI50 [31]?
A: 2780 nM

Q: What about the TGI [31] of the same compound?
A: 14300 nM

Q: And the GI50 [32]?
A: 1340 nM

Q: What about the TGI [32] of the same compound?
A: 2650 nM

Q: And the GI50 [33]?
A: 717 nM

Q: What about the TGI [33] of the same compound?
A: 2090 nM

Q: What about the GI50 [34] of the same compound?
A: 1100 nM

Q: What about the TGI [34] of the same compound?
A: 2940 nM

Q: And the GI50 [35]?
A: 2630 nM

Q: What about the TGI [35] of the same compound?
A: 9020 nM

Q: What about the GI50 [36] of the same compound?
A: 614 nM

Q: What about the TGI [36] of the same compound?
A: 2030 nM

Q: And the GI50 [37]?
A: 2170 nM

Q: And the TGI [37]?
A: 5350 nM

Q: And the GI50 [38]?
A: 2000 nM

Q: And the TGI [38]?
A: 4830 nM

Q: What about the GI50 [39] of the same compound?
A: 207 nM

Q: And the TGI [39]?
A: 1600 nM

Q: And the GI50 [40]?
A: 2770 nM

Q: What about the TGI [40] of the same compound?
A: 10500 nM

Q: What about the GI50 [41] of the same compound?
A: 1370 nM

Q: And the TGI [41]?
A: > 100000 nM

Q: What about the GI50 [42] of the same compound?
A: 1380 nM

Q: What about the TGI [42] of the same compound?
A: 2740 nM

Q: And the GI50 [43]?
A: 2000 nM

Q: What about the TGI [43] of the same compound?
A: 7720 nM

Q: What about the GI50 [44] of the same compound?
A: 2030 nM

Q: What about the TGI [44] of the same compound?
A: 4950 nM

Q: What about the GI50 [45] of the same compound?
A: 1390 nM

Q: What about the TGI [45] of the same compound?
A: 3210 nM

Q: What about the GI50 [46] of the same compound?
A: 1750 nM

Q: What about the TGI [46] of the same compound?
A: 4900 nM

Q: And the GI50 [47]?
A: 3570 nM

Q: What about the TGI [47] of the same compound?
A: 12900 nM

Q: What about the GI50 [48] of the same compound?
A: 2330 nM

Q: And the TGI [48]?
A: 7560 nM

Q: What about the GI50 [49] of the same compound?
A: 2050 nM

Q: And the TGI [49]?
A: 6310 nM

Q: And the GI50 [50]?
A: 1300 nM

Q: And the TGI [50]?
A: 3010 nM

Q: What about the GI50 [51] of the same compound?
A: 1290 nM

Q: And the TGI [51]?
A: 5330 nM

Q: What about the GI50 [52] of the same compound?
A: 736 nM

Q: What about the TGI [52] of the same compound?
A: 2130 nM

Q: What about the GI50 [53] of the same compound?
A: 348 nM

Q: What about the TGI [53] of the same compound?
A: 1540 nM

Q: And the GI50 [54]?
A: 1930 nM

Q: And the TGI [54]?
A: 5200 nM

Q: What about the GI50 [55] of the same compound?
A: 1120 nM

Q: What about the TGI [55] of the same compound?
A: 3800 nM

Q: And the GI50 [56]?
A: 276 nM

Q: And the TGI [56]?
A: 1260 nM

Q: And the GI50 [57]?
A: 4440 nM

Q: And the TGI [57]?
A: > 100000 nM

Q: And the GI50 [58]?
A: 1260 nM

Q: What about the TGI [58] of the same compound?
A: 3180 nM
